What was measured:
MB-231 (HBC) = assay: MTS cell assay, MB-231; format: cell-based, Human; settings: 72 hours
Protocol: Charles River Labs athymic nude mice bearing MDA-MB-231 breast carcinoma cell line subcutaneous xenografts (5×10^6 cells in matrigel) were sacrificed to make a tumor isolate. Using sterile instruments and working aseptically, the tumors were removed from the euthanized animal. The tumor was placed in a 50 mL sterile conical tube and 5 mL of trypsin was added. The tumor was cut into small pieces and incubated at 37° C. for 30 minutes. After incubation, a cell strainer was placed on a second, sterile, 50 mL conical tube and the contents of the first tube were placed in the cell strainer. The tissue was forced through the filter using the flat end of a syringe plunger. The cell strainer was washed with 5 mLs of media containing FBS. The cells were spun down and the supernatant was discarded. The cells were resuspended in 20 mLs of complete media containing P/S and placed in a 75 cm flask.
(§1) Human carcinoma cells (2,000 cells/well) were incubated with the desired concentration of the test molecule (0-200 μM) for 72 hours. The cells were then incubated with MTS solution (Promega) for 1-2 hours, and the compounds effects on cell proliferation was determined by measuring the absorbance at 490 nm. Cell growth was expressed as a percent of the appropriate control (placebo). […] All data reported was the mean±SE of three independent experiments.

H-460 (NSCLC) = assay: MTS cell assay, H-460; format: cell-based, Human
Protocol: as §1

[1] = Rat plasma, blood and organ pharmacokinetics after bendamustine C12 ester 30 mg/kg i.v.; format: in vivo; settings: 1 mL/kg
Protocol: (§2) Plasma and other tissues were prepared for high performance liquid chromatography (HPLC)/mass spectrometric analysis according to a standard protocol following protein precipitation with acetonitrile containing an internal standard. The samples were then analyzed for both bendamustine HCl and bendamustine esters of the invention and alprenolol (internal standard) via HPLC coupled with tandem mass spectrometry. Tissue samples were homogenized in sodium phosphate buffer and the value obtained from the assay was multiplied by 3 to correct for dilution during processing.
(§3) Adult animals (Charles River, Kingston, N.Y.; n=3 or 4/time point) were used in all experiments. The mice or rats were not fasted overnight prior to IV dose administration via the lateral tail vein. IV doses were administered in a fixed dose volume of 100 μL in mice or a dose volume of 1 mL/kg in rats. The mice were sacrificed by decapitation and trunk blood was collected into heparinized tubes at the sampling times stipulated. For blood collection, each rat (unanesthetized) was placed in a clear Plexiglas® restraining tube, and blood samples (approximately 0.25 mL) were drawn from a lateral tail vein into heparinized collection tubes at the sampling times stipulated. (Note: No pre-dose samples were obtained.) The exception to this procedure was the last sampling time in which the rats were sacrificed by decapitation and trunk blood was obtained rather than blood via a tail vein. The blood samples were placed on wet ice until centrifuged to separate plasma. The plasma fraction was transferred into clean, dry tubes, frozen on dry ice and stored at approximately −20° C. pending analysis. Whole brains and other highly perfused organs (liver, lung, spleen, kidney and heart) were rapidly removed at the predetermined time points and frozen on dry ice. All tissue samples were also stored at approximately −20° C. pending analysis.
(§4) The plasma concentration data for all mice and rats were entered into Excel spreadsheets in preparation for pharmacokinetic analysis. Mean pharmacokinetic parameters were estimated by non-compartmental analysis (Gibaldi and Perrier 1982) of the plasma concentration versus time data using WinNonlin software (Professional Version 4.1, Pharsight Corporation, Palo Alto, Calif.). The terminal rate constant for elimination from plasma (β) was estimated by linear regression of the terminal portion of the semi-logarithmic plasma concentration versus time curve. The apparent terminal half-life (t1/2) was calculated as 0.693 divided by β. The area under the plasma concentration versus time curve from time zero to the time of the last measurable concentration (AUC0-t) after a single dose was determined by the linear trapezoidal rule. The area from zero to infinity (AUC0-∞) was calculated as the sum of AUC0-t and the area extrapolated from the last measurable concentration to infinity (Clast/β). Concentrations pre-dose were all assumed to be zero for the purpose of calculation of the AUC. Any concentration that was below the limit of quantification (BLQ) after the last quantifiable sampling time was considered to be an empty value for the purpose of calculation of the AUC; it was treated as zero for the calculation of the mean concentration for a given sampling time.

[2] = Rat plasma pharmacokinetics, solution formulations of C16, cyclohexyl and 5-decanyl esters, 3 mg-eq/kg i.v.; format: in vivo; settings: solution formulation 3 mg-eq/kg i.v.
Protocol: as §2, §3, §4

[3] = Homo sapiens, NCI-H460, 72 hours
[4] = C12 ester Nanoparticle Formulation

CCCCCCCCCCOC(=O)CCCc1nc2cc(N(CCCl)CCCl)ccc2n1C [—C10H21, 4-{5-[Bis-(chloroethyl)-amino]-1-methyl-1H-benzimidazol-2-yl}butyric acid decyl ester]
IC50 (MB-231 (HBC); Homo sapiens): 38.9 µM
IC50 (H-460 (NSCLC); [3]): 23.8 µM

CCCCCCCCOC(=O)CCCc1nc2cc(N(CCCl)CCCl)ccc2n1C [—C8H17, 4-{5-[Bis-(chloroethyl)-amino]-1-methyl-1H-benzimidazol-2-yl}butyric aid octyl ester]
IC50 (H-460 (NSCLC); 72 hours): 49 µM

CCCCCCCCCCCCCCCOC(=O)CCCc1nc2cc(N(CCCl)CCCl)ccc2n1C [—C15H31, 4-{5-[Bis-(chloroethyl)-amino]-1-methyl-1H-benzimidazol-2-yl}butyric acid pentadecyl ester]
IC50 (MB-231 (HBC); Homo sapiens): > 200 µM
IC50 (H-460 (NSCLC); [3]): > 200 µM

CCCCOC(=O)CCCc1nc2cc(N(CCCl)CCCl)ccc2n1C [—C4H9, 4-{5-[Bis-(chloroethyl)-amino]-1-methyl-1H-benzimidazol-2-yl}butyric acid butyl ester]
IC50 (MB-231 (HBC); Homo sapiens): 13.3 µM
IC50 (H-460 (NSCLC); [3]): 15.7 µM

CCCCCCCCCCCCOC(=O)CCCc1nc2cc(N(CCCl)CCCl)ccc2n1C [Bendamustine C12 Ester, 4-{5-[Bis-(chloroethyl)-amino]-1-methyl-1H-benzimidazol-2-yl}butyric aid dodecyl ester]
AUC0-t of C12 Ester, Blood ([1]; C12 ester Liquid Formulation): 4424 ng·h/mL
AUC0-t of C12 Ester, Brain ([1]; C12 ester Liquid Formulation): 299 ng·h/mL
AUC0-t of C12 Ester, Kidney ([1]; C12 ester Liquid Formulation): 2383 ng·h/mL
AUC0-t of C12 Ester, Liver ([1]; C12 ester Liquid Formulation): 2564 ng·h/mL
AUC0-t of C12 Ester, Lung ([1]; C12 ester Liquid Formulation): 12619 ng·h/mL
AUC0-t of C12 Ester, Spleen ([1]; C12 ester Liquid Formulation): 25874 ng·h/mL
AUC0-∞ of C12 Ester, Kidney ([1]; C12 ester Liquid Formulation): 2605 ng·h/mL
AUC0-∞ of C12 Ester, Liver ([1]; C12 ester Liquid Formulation): 2586 ng·h/mL
AUC0-∞ of C12 Ester, Lung ([1]; C12 ester Liquid Formulation): 13246 ng·h/mL
AUC0-∞ of C12 Ester, Spleen ([1]; C12 ester Liquid Formulation): 25927 ng·h/mL
t1/2 of C12 Ester, Kidney ([1]; C12 ester Liquid Formulation): 5.3 h
t1/2 of C12 Ester, Liver ([1]; C12 ester Liquid Formulation): 0.8 h
t1/2 of C12 Ester, Lung ([1]; C12 ester Liquid Formulation): 7.6 h
t1/2 of C12 Ester, Spleen ([1]; C12 ester Liquid Formulation): 3.1 h
AUC0-t of C12 Ester, Blood [1, 4]: 951 ng·h/mL
AUC0-t of C12 Ester, Brain [1, 4]: 149 ng·h/mL
AUC0-t of C12 Ester, Kidney [1, 4]: 1766 ng·h/mL
AUC0-t of C12 Ester, Liver [1, 4]: 13355 ng·h/mL
AUC0-t of C12 Ester, Lung [1, 4]: 28327 ng·h/mL
AUC0-t of C12 Ester, Spleen [1, 4]: 13111 ng·h/mL
AUC0-∞ of C12 Ester, Kidney [1, 4]: 1802 ng·h/mL
AUC0-∞ of C12 Ester, Liver [1, 4]: 13586 ng·h/mL
AUC0-∞ of C12 Ester, Lung [1, 4]: 32297 ng·h/mL
AUC0-∞ of C12 Ester, Spleen [1, 4]: 13578 ng·h/mL
t1/2 of C12 Ester, Kidney [1, 4]: 4.9 h
t1/2 of C12 Ester, Liver [1, 4]: 4.5 h
t1/2 of C12 Ester, Lung [1, 4]: 8.5 h
t1/2 of C12 Ester, Spleen [1, 4]: 5.4 h
IC50 (MB-231 (HBC)): 33.3 µM
IC50 (H-460 (NSCLC); 72 hours): 28.8 µM

CCCCCC(CCCC)OC(=O)CCCc1nc2cc(N(CCCl)CCCl)ccc2n1C (stereo not drawn) [5-decanyl ester, 4-{5-[Bis-(chloroethyl)-amino]-1-methyl-1H-benzimidazol-2-yl}butyric acid 5-decyl ester]
Plasma levels of Ester [2]: All < MQL

CCCCCCOC(=O)CCCc1nc2cc(N(CCCl)CCCl)ccc2n1C [—C6H13, 4-{5-[Bis-(chloroethyl)-amino]-1-methyl-1H-benzimidazol-2-yl}butyric acid hexyl ester]
IC50 (MB-231 (HBC); Homo sapiens): 43.7 µM
IC50 (H-460 (NSCLC); [3]): 7.4 µM

Cn1c(CCCC(=O)OC2CCCCC2)nc2cc(N(CCCl)CCCl)ccc21 [Cy-hexyl bendamustine ester, 4-{5-[Bis-(chloroethyl)-amino]-1-methyl-1H-benzimidazol-2-yl}butyric acid cyclohexyl ester]
Plasma levels of Ester [2]: All < MQL

CCCCCCCCCCCCCCCCOC(=O)CCCc1nc2cc(N(CCCl)CCCl)ccc2n1C [C16 bendamustine ester, 4-{5-[Bis-(chloroethyl)-amino]-1-methyl-1H-benzimidazol-2-yl}butyric acid hexadecyl ester]
AUC(0-t) ([2]; plasma, iv, 3 mg/kg, Mean n = 3, read-out: AUC0-t of Ester in plasma): 1210 ng·h/mL
AUC(0-inf) ([2]; plasma, iv, 3 mg/kg, Mean n = 3, read-out: AUC0-∞ of Ester in plasma): 1210 ng·h/mL
clearance ([2]; plasma, iv, 3 mg/kg, Mean n = 3, read-out: CL of Ester): 41 mL/min/kg
Vd ([2]; plasma, iv, 3 mg/kg, Mean n = 3, read-out: Vd of Ester): 1 L/kg
half-life ([2]; plasma, iv, 3 mg/kg, Mean n = 3, read-out: t1/2 of Ester in plasma (converted)): 0.28 h
IC50 (MB-231 (HBC); Homo sapiens): > 200 µM
IC50 (H-460 (NSCLC); [3]): 77.8 µM

Reference: patent US9452988B2, “Bendamustine derivatives and methods of using same” (Ignyta, Inc., priority 2012, dated 2016)
